Test results from US8911715B2, “L-menthyl-N-(2-hydroxyphenyl)carbamate” (Symrise AG, priority 2008, dated 2014).
pIC50: −log10 of the molar value. In brackets after ≈: the same amount, converted by molar mass.

What was measured:
Staphylococcus aureus = assay: MIC determination, series dilution test (microtiter plate) / agar dilution method; assay type: cell-based; conditions: ATCC6538; Staphylococcus aureus ATCC 6538; 16 hours incubation, clouding at 620 nm
Protocol: (§1) The evidence of the antimicrobial action against body perspiration odor bacteria of the substances synthesized according to the examples was implemented with the aid of the agar dilution method according to DIN 58 940/ICS and DIN 58 944/ICS. Petri dishes of 5.5 cm in diameter were filled with 8.7 ml freshly produced Mueller-Hinton-agar or Wilkins-Chalgren-agar bouillon kept liquid at 50° C., supplemented with 10 g agar-agar/liter) to which the various concentrations of the thinned samples were added in 3.3% by volume=0.3 ml.
(§2) 2.6 ml of the 3.3% samples were diluted with ethanol (96%). By continuous 2:1 dilution with ethanol (96%) the further test concentrations of the respective series of dilution, which were placed in the form of geometric rows, were produced.
(§3) By further dilution with the test agar (0.3 ml sample or corresponding dilutions+8.7 ml agar), 30 times lower end concentrations were achieved (corresponds to a starting concentration of 1,100 ppm in each case). The concentrations disclosed below relate to the pure substance and are converted into ppm. […]
(§4) All the test germ suspensions were diluted again with sterile bouillon 1:10 and the germ count thereof determined in the surface method per spiralometer (results: see Table 1).
(§5) The lowest active ingredient concentration was regarded as the MIC (minimal inhibition concentration), at which no growth is macroscopically present. Minimal, hardly visible growth or a few small individual colonies were evaluated as inhibition.
(§6) The minimum inhibition concentration (MIC) of the compound according to the invention, was determined against various cosmetically relevant germs in the series dilution test (H. Brandis, G. Pulverer: Lehrbuch der Medizinischen Mikrobiologie, 6th revised edition, Gustav Fischer Verlag Stuttgart, 1988; page 200 et seq.). The test was transferred to the microtiter plate format and the concentration was determined as the MIC value, in which after 16 hours of incubation, at the wavelength of 620 nm, no significant rise in the clouding was observed relative to the controls.

Corynebacterium xerosis = assay: as above; assay type: cell-based
Protocol: as §1, §2, §3, §4, §5, §6

Aspergillus niger = assay: as above; assay type: cell-based
Protocol: as §1
2.6 ml of the 3.3% samples were diluted with ethanol (96%). […]
as §4, §5
The minimum inhibition concentration (MIC) of the compound according to the invention, was determined against various cosmetically relevant germs in the series dilution test (H. Brandis, G. Pulverer: Lehrbuch der Medizinischen Mikrobiologie, 6th revised edition, Gustav Fischer Verlag Stuttgart, 1988; page 200 et seq.). […]

[1] = ABTS assay, cell-free in vitro test of antioxidant capacity; assay type: biochemical; set-up: Mean antioxidant capacity (AOX): unit not given here; conditions: for pIC50: ABTS decoloration at 734 nm, read-out: IC50 (antioxidant concentration in which 50% of the cationic radicals are reduced); for pIC50 / Mean antioxidant capacity (AOX): mean of two independent tests
Source text: In order to check to what extent L-menthyl-N-(2-hydroxyphenyl)carbamate also has antioxidant potential, the substance was investigated with the aid of the ABTS assay.
The ABTS assay is a cell-free in vitro test for evaluating the antioxidant capacity (literature: Re R, Pellegrini N, Proteggente A, Pannala A, Yang M, Rice-Evans C. 1999. “Antioxidant activity applying an improved ABTS radical cation decolorization assay”; Free Radic. Bio. Med. 26: 1231-7). The assay uses the inherent color of a solution produced with the cationic radical 2,2′-azinobis(3-ethylbenzothiazoline 6-sulfonic acid) (ABTS+) and potassium persulfate, which solution is decolored by the addition of antioxidants (reduction of the cationic radical). This decoloration can be measured photometrically at 734 nm.
The test is carried out in 96-well microtiter plates. The antioxidant capacity is expressed in IC50 values (antioxidant concentration in which 50% of the cationic radicals are reduced). All the ABTS test results result from two independent tests and are shown as mean values with associated mean value deviation.

| MIC (Staphylococcus aureus) [µg/mL] | MIC (Corynebacterium xerosis; ATCC7711, Corynebacterium xerosis ATCC 7711, 16 hours incubation, clouding at 620 nm) [µg/mL] | MIC (Aspergillus niger; ATCC16404, Aspergillus niger ATCC 16404, 16 hours incubation, clouding at 620 nm) [µg/mL] | pIC50 [1] | SMILES | inhibition of the growth (in words) (Corynebacterium xerosis; gram-positive bacteria such as corynebacterium xerosis, very small concentrations) | activity relative to mould fungi (in words) (Aspergillus niger; mould fungi such as Aspergillus niger) | antioxidant capacity compared with reference alpha-tocopherol (in words) ([1]; ABTS investigations) | Mean antioxidant capacity (AOX) ([1]; concentration 0.001 mM) | Mean antioxidant capacity (AOX) ([1]; concentration 0.0025 mM) | Mean antioxidant capacity (AOX) ([1]; concentration 0.005 mM) | Mean antioxidant capacity (AOX) ([1]; concentration 0.025 mM) | Mean antioxidant capacity (AOX) ([1]; concentration 0.05 mM) |
| --- | --- | --- | --- | --- | --- | --- | --- | --- | --- | --- | --- | --- |
| 8 (≈ 27.5 µM) | 8 (≈ 27.5 µM) | > 1000 | 4.72 | CC(C)[C@@H]1CC[C@@H](C)C[C@H]1OC(=O)Nc1ccccc1O [L-menthyl-N-(2-hydroxyphenyl)carbamate] | clear inhibition of the growth | inactive | comparable with the antioxidant capacity of the reference substance alpha-tocopherol | 3.58 | 8.84 | 17.50 | 63.15 | 96.56 |
|  |  |  | 4.60 | Cc1c(C)c2c(c(C)c1O)CC[C@@](C)(CCC[C@H](C)CCC[C@H](C)CCCC(C)C)O2 [alpha-tocopherol, reference compound] |  |  |  | 0.56 | 4.16 | 10.83 | 51.38 | 94.88 |
